Activity calls are given as the source filed them. No rule for the calls is given here.

Among the data in PubChem BioAssay AID1033 (Sanford-Burnham Center for Chemical Genomics, 2008) are Kd values, retold here.

Chain of Chaperone protein DnaK (Escherichia coli (strain K12)) (P0A6Y8 whole entry, looked up): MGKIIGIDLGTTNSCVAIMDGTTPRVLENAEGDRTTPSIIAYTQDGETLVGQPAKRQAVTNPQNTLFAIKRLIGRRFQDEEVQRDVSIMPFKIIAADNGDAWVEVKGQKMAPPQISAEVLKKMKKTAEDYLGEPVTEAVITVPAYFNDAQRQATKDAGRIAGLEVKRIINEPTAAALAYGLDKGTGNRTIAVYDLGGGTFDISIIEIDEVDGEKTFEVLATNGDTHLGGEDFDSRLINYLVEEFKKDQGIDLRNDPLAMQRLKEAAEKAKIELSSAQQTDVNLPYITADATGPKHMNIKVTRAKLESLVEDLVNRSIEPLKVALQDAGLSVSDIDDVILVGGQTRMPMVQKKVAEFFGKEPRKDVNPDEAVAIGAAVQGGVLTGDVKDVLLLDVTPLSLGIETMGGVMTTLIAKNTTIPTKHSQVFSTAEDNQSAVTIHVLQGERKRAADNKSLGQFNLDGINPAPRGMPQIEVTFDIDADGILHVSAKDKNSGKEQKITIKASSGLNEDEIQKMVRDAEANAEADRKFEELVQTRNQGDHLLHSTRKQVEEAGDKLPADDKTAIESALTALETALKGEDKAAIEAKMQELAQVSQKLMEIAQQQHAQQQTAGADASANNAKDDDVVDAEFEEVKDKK

This assay has as its target Chaperone protein DnaK (Escherichia coli (strain K12)) (UniProt P0A6Y8). Put plainly: E. coli DnaK SBD ligand binding – biophysical, NMR, chaperone (AID 1033). The settings on record: Purified DnaK SBD.
For the compound `O=C(Cn1cncn1)c1ccc(F)c(F)c1`, the Kd is > 4 mM (inactive).
For the compound `CCN1CCC2(CC1)CC1CC3C=CC1(CN2C(C)=O)O3` (stereo unspecified), the Kd is > 4 mM (inactive).
Consider `CCOC(=O)c1c(SC)nc(=O)[nH]c1C`, for which the Kd was > 4 mM (inactive).
For `c1ccc2c(c1)[nH]c1cnccc12`, the Kd is > 4 mM (inactive).
Regarding `S=C(Cc1cccnc1)N1CCOCC1`, the Kd was > 4 mM (inactive).
As for `O=C(O)C1CC(C2CCCCN2)CN2CCCCC12` (stereo unspecified), the figure is > 4 mM (inactive); as for `N=c1n(N)c2ccccc2n1CCO`, > 4 mM (inactive); as for `Cc1ccc(C(=O)Nc2nnc(-c3ccncc3)s2)o1`, > 4 mM (inactive).
As for `O=C(O)Cc1c[nH]c2ccccc12`, the figure is > 4 mM (inactive); as for `CCCCC(Nc1n[nH]c(=O)[nH]c1=O)C(=O)O` (stereo unspecified), > 4 mM (inactive).
As for `O=C1CSC(c2ccccc2)N1` (stereo unspecified), the figure is > 4 mM (inactive).
For `O=C(NCc1ccccc1)c1ccc[n+]([O-])c1`, the Kd is > 4 mM (inactive).
Regarding `c1ccc(-c2noc(-c3ccco3)n2)nc1`, the Kd was > 4 mM (inactive).
As for `O=C(Cc1c(F)cccc1Cl)Nc1cccnc1`, the figure is > 4 mM (inactive).
The figure for `O=C(Nc1cccnc1)c1ccc(Br)s1` is > 4 mM (inactive).
The figure for `COc1ccc2nc(NC(=O)c3cnccn3)sc2c1` is > 4 mM (inactive); for `C=C1C(N)CC2CC1C2(C)C` (stereo unspecified) it is > 4 mM (inactive).
With `CCOc1ccc(C(=O)c2ccncc2)cc1`, the Kd is > 4 mM (inactive).
For `NC(=O)CSc1ccc2nnc(-c3cccs3)n2n1`, the Kd is > 4 mM (inactive).
As for `c1ccc(CNc2ncnc3nc[nH]c23)nc1`, the figure is > 4 mM (inactive); as for `OCc1ccc2c(c1)OCCO2`, > 4 mM (inactive); as for `COc1ccc(C(O)c2nccn2C)cc1` (stereo unspecified), > 4 mM (inactive).
The figure for `COc1ccc(C2NC(C(=O)O)CS2)cc1` (stereo unspecified) is > 4 mM (inactive); for `O=C1CC2OCC=C3CN4CC[C@]56c7ccccc7N1C5[C@H]2[C@H]3CC46` (stereo partly specified) it is > 4 mM (inactive); for `C[C@@H]1CC[C@]2(C(=O)O)CC[C@]3(C)C(=CCC4[C@@]5(C)CC[C@H](O)C(C)(C)C5CC[C@]43C)C2[C@H]1C` (stereo partly specified) it is > 4 mM (inactive).
In the case of `Cn1c(=O)c2c([nH]c(=O)n2C)n(C)c1=O`, the Kd was > 4 mM (inactive).
As for `COc1ccc(-c2ccc(=O)n(CC(N)=O)n2)cc1`, the figure is > 4 mM (inactive).
Take `NCc1oc(-c2ccccc2)cc1C(=O)O`: the Kd is > 4 mM (inactive).
As for `Nc1ccc(S(=O)(=O)N2CCOCC2)cc1`, the figure is > 4 mM (inactive).
The figure for `CNC(=S)Nc1ccc(OC)cc1C` is > 4 mM (inactive).
The figure for `C=C(C)[C@H]1CC=C(C(=O)O)CC1` is > 4 mM (inactive); for `CN(C)c1oc(-c2ccccc2Cl)nc1C#N` it is > 4 mM (inactive).
Consider `S=C(Nc1ccccc1)Nc1nncs1`, for which the Kd was > 4 mM (inactive).
`Cc1ccc(Nc2nc(N)nc(CC#N)n2)cc1`: the Kd was > 4 mM (inactive).
As for `O=C1N=c2ccccc2=C1c1sc(=S)[nH]c1O`, the figure is > 4 mM (inactive); as for `CC(=O)O[C@@H]1CC2C(C)(C)[C@H](O)C[C@H](O)[C@]2(C)C2CC[C@@]3(C)C(=CC(=O)O[C@H]3c3ccoc3)[C@@]21C` (stereo partly specified), > 4 mM (inactive).
Turning to `O=C(O[C@@H]1Cc2c(O)cc(O)cc2O[C@@H]1c1cc(=O)c(O)c2c(O)c(O)cc([C@H]3Oc4cc(O)cc(O)c4C[C@H]3O)c2c1)c1cc(O)c(O)c(O)c1`, the Kd is > 4 mM (inactive).
The figure for `Nc1ccnc(C(=O)O)c1` is > 4 mM (inactive); for `Cc1csc2nc(=O)c3ccccc3n12` it is > 4 mM (inactive); for `CC(=O)Nc1ccc(NC(=O)N2CCOCC2)cc1` it is > 4 mM (inactive).
As for `Cc1cc(N2C(=O)CCC2=O)n(-c2ccccc2)n1`, the Kd was > 4 mM (inactive).
On to `Cc1noc(C)c1C(=O)NC1=NCCS1`, for which the Kd is > 4 mM (inactive).
Turning to `Cc1cc(C(=O)N2CCC3(CC2)OCCO3)cs1`, the Kd was > 4 mM (inactive).
As for `Cc1c(C(=O)NCc2ccccn2)oc2ccccc12`, the figure is > 4 mM (inactive).
Consider `O=C1CCCN1c1ccc(S(=O)O)cc1`, for which the Kd was > 4 mM (inactive).
The figure for `COC1=CC(C)[C@@H]2C[C@H]3OC(=O)C[C@H]4C(C)=C(OC)C(=O)C([C@@]34C)[C@@]2(C)C1=O` (stereo partly specified) is > 4 mM (inactive); for `COc1ccc2c(=O)c(OC)c(-c3ccccc3)oc2c1` it is > 4 mM (inactive).
As for `CC(C)/C(O)=C1/C(=O)O[C@@H](c2ccoc2)[C@]2(C)C(O)[C@@H](O)[C@@]34OC5(C)OC67CC(C)(C(O)[C@]6(O)[C@@H](O)[C@]3(O5)C12)[C@H](CC(=O)O)[C@]74C` (stereo partly specified), the figure is > 4 mM (inactive).
As for `CN1CCC2(CC1)CC1CC3C=CC1(CN2)O3` (stereo unspecified), the Kd was > 4 mM (inactive).
As for `CC(=O)O[C@H]1C[C@@]2(C)[C@@H](C[C@@H](O)C3[C@]2(C)CC[C@H]2[C@H](C)[C@H](O)CC[C@]32C)/C1=C(/CCC=C(C)C)C(=O)O` (stereo partly specified), the Kd was > 4 mM (inactive).
The figure for `c1cncc(C(N2CCOCC2)N2CCOCC2)c1` is > 4 mM (inactive); for `COc1ccc(Cl)cc1-c1n[nH]c(=S)n1C` it is > 4 mM (inactive).
As for `CC(=O)c1c(O)cc(O)cc1O`, the figure is > 4 mM (inactive); as for `NC(=O)CSc1nc2ccccc2o1`, > 4 mM (inactive).
Turning to `CCn1ncc(Cl)c1C(=O)Nc1ccncc1`, the Kd is > 4 mM (inactive).
`C=CCCCCCCCCCCCC(O)CC(O)COC(C)=O` (stereo unspecified) (tested in a mixture with another compound): the Kd was > 4 mM (inactive).
Turning to `COc1cc(/C=C/C(=O)/C=C(O)/C=C/c2ccc(O)c(OC)c2)ccc1O`, the Kd was > 4 mM (inactive).
As for `Cc1cc(C(=O)N2CCOCC2)c(C)o1`, the figure is > 4 mM (inactive); as for `O=C(O)Cn1cc(C(=O)c2cccs2)c2ccccc21`, > 4 mM (inactive).
As for `CC(CC(=O)O)n1cccn1` (stereo unspecified), the figure is > 4 mM (inactive); as for `CN1CCC(NC(=S)NC2CC2)CC1`, > 4 mM (inactive); as for `COCC(=O)Nc1c(C(N)=O)oc2ccccc12`, > 4 mM (inactive).
As for `CC(=O)Nn1cc2c(=O)n(C)c(=O)n(C)c2c1`, the figure is > 4 mM (inactive); as for `OCc1nccn1Cc1ccccc1`, > 4 mM (inactive).
Consider `COc1cc([C@@H]2c3cc4c(cc3[C@H](OC(C)=O)[C@H]3COC(=O)[C@@H]23)OCO4)cc(OC)c1OC`, for which the Kd is > 4 mM (inactive).
As for `CCOC(=O)c1c(C)n([O-])c2ccccc2[n+]1=O`, the figure is > 4 mM (inactive).
As for `COC(=O)c1c(C)c2c(c(C)c1O)OC(=O)c1c(C)c(Cl)c(O)c(Cl)c1O2`, the figure is > 4 mM (inactive); as for `O=C(Nc1nnc(-c2ccco2)o1)c1ccc([N+](=O)[O-])o1`, > 4 mM (inactive).
For the compound `NC(=O)c1ccccc1NC(=O)C1CC1`, the Kd is > 4 mM (inactive).
Turning to `C[C@]12CCC3C(CC[C@H]4C[C@@H](O)CC[C@]34C)C1CCC2=O` (stereo partly specified), the Kd was > 4 mM (inactive).
As for `Cn1cnnc1SCCCNC(=O)Nc1ncccn1`, the figure is > 4 mM (inactive).
The figure for `OC(c1ccccc1)c1ccccn1` (stereo unspecified) is > 4 mM (inactive); for `COc1ccc(NS(=O)(=O)c2ccc(N)cc2)nn1` it is > 4 mM (inactive); for `COc1ccc2nc(SCC(N)=O)[nH]c2c1` it is > 4 mM (inactive).
The figure for `Fc1cccc(Cl)c1CN1CCNCC1` is > 4 mM (inactive).
Regarding `Cc1cc(N)n(-c2ccccc2)n1`, the Kd is > 4 mM (inactive).
As to `O=S1(=O)CCC(NC(=S)Nc2ccc(O)cc2)C1` (stereo unspecified), the Kd was > 4 mM (inactive).
As for `OCc1cccc2c1OCCO2`, the figure is > 4 mM (inactive); as for `COC(=O)c1nc(-c2ccccc2)oc1N(C)C`, > 4 mM (inactive); as for `O=c1c(O)cc([C@H]2Oc3cc(O)cc(O)c3C[C@H]2O)cc2c([C@H]3Oc4cc(O)cc(O)c4C[C@H]3O)cc(O)c(O)c12`, > 4 mM (inactive).
`CCOC(=O)Cn1cnc2c1c(=O)[nH]c(=O)n2C`: the Kd was > 4 mM (inactive).
As for `CC(=O)NC(O)C(=O)c1ccccc1` (stereo unspecified), the figure is > 4 mM (inactive); as for `CC(=O)O[C@H]1CC[C@@]2(C)C(=CC(=O)C3C4CCC(C(C)CCCC(C)C)[C@@]4(C)CCC32)C1` (stereo partly specified), > 4 mM (inactive); as for `C=C1C2CC[C@@]3(C)[C@H](c4ccoc4)OC(=O)C[C@]13O[C@H]1C[C@H](OC(C)=O)C(C)(C)[C@H](CC(=O)OC)[C@@]21C`, > 4 mM (inactive).
Consider `S=c1nc(C2CC2)[nH]c2ccccc12`, for which the Kd is > 4 mM (inactive).
As to `COc1cc(/C=C2/NC(=S)NC2=O)cc(Cl)c1O`, the Kd is > 4 mM (inactive).
The figure for `O=C(c1ccco1)N1CCCN(C(=O)c2ccco2)CC1` is > 4 mM (inactive); for `CC(C)NC(=O)Cc1c(O)c2ccccc2[nH]c1=O` it is > 4 mM (inactive).
As for `CC(=O)OC(C)(C)[C@@H]1Cc2cc3ccc(=O)oc3cc2O1`, the figure is > 4 mM (inactive).
As for `Cc1cc(F)c(F)c(C(=O)NC2CC2)c1Cl`, the Kd is > 4 mM (inactive).
For the compound `Cc1ccc(C(=O)N2CCC(C(N)=O)CC2)cc1C`, the Kd is > 4 mM (inactive).
As for `O=c1c(-c2ccco2)[n+]([O-])c2ccccc2n1O`, the figure is > 4 mM (inactive); as for `CC1(c2ccncc2)NC(=O)NC1=O` (stereo unspecified), > 4 mM (inactive); as for `Cc1c(C(=O)Nc2ccncc2)oc2c1C(=O)CC(C)(C)C2`, > 4 mM (inactive).
As for `CC1(C)C2CC(=O)[C@]3(C)C(CC[C@@]4(C)[C@H](c5ccoc5)OC(=O)[C@H]5O[C@]543)[C@@]2(C)C=C[C@@H]1O` (stereo partly specified), the figure is > 4 mM (inactive); as for `Cn1cnc2c(Cl)ncnc21`, > 4 mM (inactive).
